# Test results published in PMC7413254 (Nature Communications, 2020).
# Legend:
# non-expressing oocytes = assay: cells; format: cell-based, Xenopus laevis
# In short: (§1)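 ND96, pH 5.5, 1.5 h, 27.5 °C; uptake direction acidic outside → oocyte cytosol, mimicking efflux from digestive vacuole. Ice-cold wash stop, 10% SDS lysis, scintillation counting. Ten oocytes/treatment, ≥4 independent experiments.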
# PfCRT^Dd2 [1] = target: T1, PfCRT^Dd2 (Plasmodium falciparum, UniProt Q9N623, A220S/I356T/K76T/M74I/N326S/N75E/Q271E/R371I); assay: [3H]CQ uptake into Xenopus oocytes, cis-inhibition by unlabelled solute; format: cell-based; details: PfCRTEcu1110 and PfCRTDd2
# T1 sequence (Q9N623 whole entry A220S/I356T/K76T/M74I/N326S/N75E/Q271E/R371I): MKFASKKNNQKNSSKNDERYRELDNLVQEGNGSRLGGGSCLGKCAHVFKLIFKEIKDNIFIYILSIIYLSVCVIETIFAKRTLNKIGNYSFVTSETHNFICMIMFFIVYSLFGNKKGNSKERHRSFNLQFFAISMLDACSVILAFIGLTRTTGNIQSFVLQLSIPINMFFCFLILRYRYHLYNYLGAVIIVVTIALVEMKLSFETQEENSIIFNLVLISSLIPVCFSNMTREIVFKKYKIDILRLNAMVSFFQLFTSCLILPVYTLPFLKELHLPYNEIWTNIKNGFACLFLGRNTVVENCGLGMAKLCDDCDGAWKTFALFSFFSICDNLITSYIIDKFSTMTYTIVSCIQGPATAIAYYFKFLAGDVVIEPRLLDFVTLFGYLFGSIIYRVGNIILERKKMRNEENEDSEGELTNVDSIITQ
# In short: as §1
# PfCRT^Dd2 [2] = target: T1, PfCRT^Dd2; assay: cell-based; format: cell-based; details: PfCRTDd2; mean ± SEM, n = 5; SEM
# In short: (§2)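 Oocytes (ten per treatment, ≥4 independent frogs/days) were preloaded by injecting VF-6 in 25 nL ND96 at pH 5.0, 5.5, 6.0 or 7.0, or Na^+-free choline buffer, then uptake run 1.5 h, 27.5 °C, ND96 pH 5.5 by default. Internal concentrations assumed ~400 nL oocyte volume.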
# PfCRT^Ecu1110 = PfCRT^Ecu1110 (Plasmodium falciparum, UniProt Q9N623, A220S/I356L/K76T/N326D); assay: cell-based; format: cell-based; details: PfCRTEcu1110; mean ± SEM, n = 5; SEM
# PfCRT^Ecu1110, sequence (Q9N623 whole entry A220S/I356L/K76T/N326D): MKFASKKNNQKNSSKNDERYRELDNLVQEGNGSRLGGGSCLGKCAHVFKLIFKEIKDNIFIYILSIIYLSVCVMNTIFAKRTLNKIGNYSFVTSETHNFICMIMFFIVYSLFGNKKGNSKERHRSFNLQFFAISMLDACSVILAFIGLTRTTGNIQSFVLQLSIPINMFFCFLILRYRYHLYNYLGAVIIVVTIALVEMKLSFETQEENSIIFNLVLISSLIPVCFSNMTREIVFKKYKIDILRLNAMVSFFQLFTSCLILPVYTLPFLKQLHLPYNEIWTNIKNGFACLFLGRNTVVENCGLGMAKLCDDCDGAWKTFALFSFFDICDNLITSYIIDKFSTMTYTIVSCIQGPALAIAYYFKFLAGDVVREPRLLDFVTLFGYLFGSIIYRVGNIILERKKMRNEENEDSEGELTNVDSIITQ
# In short: as §2
# PfNT1 = target: T2, PfNT1 (Plasmodium falciparum, UniProt Q8IDM6); assay: cell-based; format: cell-based; details: trans-stimulation, solute 45 mM injected (estimated intracellular)
# T2 construct: expressed in transfected cells; host or cells: Xenopus laevis oocytes (stage V-VI), cRNA-injected
# T2 sequence (Q8IDM6 whole entry): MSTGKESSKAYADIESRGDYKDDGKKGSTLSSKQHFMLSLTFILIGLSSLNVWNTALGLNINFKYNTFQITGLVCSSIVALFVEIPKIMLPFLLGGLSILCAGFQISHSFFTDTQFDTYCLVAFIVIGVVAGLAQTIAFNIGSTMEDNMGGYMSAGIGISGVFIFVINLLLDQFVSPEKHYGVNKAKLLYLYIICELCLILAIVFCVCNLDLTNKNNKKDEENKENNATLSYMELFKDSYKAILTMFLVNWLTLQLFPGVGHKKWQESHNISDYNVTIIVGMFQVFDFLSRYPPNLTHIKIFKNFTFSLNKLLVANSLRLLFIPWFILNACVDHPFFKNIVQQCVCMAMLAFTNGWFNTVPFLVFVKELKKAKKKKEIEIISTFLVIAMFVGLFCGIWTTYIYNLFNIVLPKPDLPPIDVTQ
# In short: as §2
# PfCRT^3D7 = PfCRT^3D7 (Plasmodium falciparum, UniProt Q8IBZ9); assay: cell-based; format: cell-based; details: for [3H]CQ transport, PfCRT3D7 (% PfCRT3D7 control): trans-stimulation, solute 45 mM injected (estimated intracellular)
# PfCRT^3D7, sequence (Q8IBZ9 59-398): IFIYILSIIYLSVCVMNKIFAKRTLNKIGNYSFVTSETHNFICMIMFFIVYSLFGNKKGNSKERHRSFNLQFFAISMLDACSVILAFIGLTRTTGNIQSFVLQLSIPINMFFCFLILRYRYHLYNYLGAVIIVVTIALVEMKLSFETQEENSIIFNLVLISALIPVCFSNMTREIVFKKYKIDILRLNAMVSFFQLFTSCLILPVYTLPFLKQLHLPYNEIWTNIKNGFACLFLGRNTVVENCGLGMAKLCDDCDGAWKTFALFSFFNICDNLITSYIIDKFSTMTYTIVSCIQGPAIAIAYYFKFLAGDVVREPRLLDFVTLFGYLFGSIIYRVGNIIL
# In short: as §2
compound,measurement,setting,value
"CCN(CC)CCCC(C)Nc1ccnc2cc(Cl)ccc12 (stereo not shown) [CQ, chloroquine, reference compound]","[3H]CQ transport, non-expressing oocytes","non-expressing oocytes; 0 mM Ca2+, Experiment 1",3.74 % PfCRTDd2 control
same,"[3H]CQ transport, non-expressing oocytes","non-expressing oocytes; 0 mM Ca2+, Experiment 2",3.63 % PfCRTDd2 control
same,"[3H]CQ transport, non-expressing oocytes","non-expressing oocytes; 0 mM Ca2+, Experiment 3",4.25 % PfCRTDd2 control
same,"[3H]CQ transport, non-expressing oocytes","non-expressing oocytes; 0 mM Ca2+, Experiment 4",3.26 % PfCRTDd2 control
same,"[3H]CQ transport, non-expressing oocytes","non-expressing oocytes; 0 mM Cl-, Experiment 1",4.15 % PfCRTDd2 control
same,"[3H]CQ transport, non-expressing oocytes","non-expressing oocytes; 0 mM Cl-, Experiment 2",3.26 % PfCRTDd2 control
same,"[3H]CQ transport, non-expressing oocytes","non-expressing oocytes; 0 mM Cl-, Experiment 3",3.11 % PfCRTDd2 control
same,"[3H]CQ transport, non-expressing oocytes","non-expressing oocytes; 0 mM Cl-, Experiment 4",3.85 % PfCRTDd2 control
same,"[3H]CQ transport, non-expressing oocytes","non-expressing oocytes; 0 mM Na+, Experiment 1",3.84 % PfCRTDd2 control
same,"[3H]CQ transport, non-expressing oocytes","non-expressing oocytes; 0 mM Na+, Experiment 2",3.27 % PfCRTDd2 control
same,"[3H]CQ transport, non-expressing oocytes","non-expressing oocytes; 0 mM Na+, Experiment 3",3.36 % PfCRTDd2 control
same,"[3H]CQ transport, non-expressing oocytes","non-expressing oocytes; 0 mM Na+, Experiment 4",3.51 % PfCRTDd2 control
same,"[3H]CQ transport, non-expressing oocytes","non-expressing oocytes; 1 mM Ca2+, Experiment 1",3.79 % PfCRTDd2 control
same,"[3H]CQ transport, non-expressing oocytes","non-expressing oocytes; 1 mM Ca2+, Experiment 2",4.21 % PfCRTDd2 control
same,"[3H]CQ transport, non-expressing oocytes","non-expressing oocytes; 1 mM Ca2+, Experiment 3",3.27 % PfCRTDd2 control
same,"[3H]CQ transport, non-expressing oocytes","non-expressing oocytes; 1 mM Ca2+, Experiment 4",3.32 % PfCRTDd2 control
same,"[3H]CQ transport, non-expressing oocytes","non-expressing oocytes; 3 mM Ca2+, Experiment 1",3.39 % PfCRTDd2 control
same,"[3H]CQ transport, non-expressing oocytes","non-expressing oocytes; 3 mM Ca2+, Experiment 2",3.63 % PfCRTDd2 control
same,"[3H]CQ transport, non-expressing oocytes","non-expressing oocytes; 3 mM Ca2+, Experiment 3",3.89 % PfCRTDd2 control
same,"[3H]CQ transport, non-expressing oocytes","non-expressing oocytes; 3 mM Ca2+, Experiment 4",3.96 % PfCRTDd2 control
same,"[3H]CQ transport, non-expressing oocytes","non-expressing oocytes; 5 mM Ca2+, Experiment 1",3.68 % PfCRTDd2 control
same,"[3H]CQ transport, non-expressing oocytes","non-expressing oocytes; 5 mM Ca2+, Experiment 2",3.26 % PfCRTDd2 control
same,"[3H]CQ transport, non-expressing oocytes","non-expressing oocytes; 5 mM Ca2+, Experiment 3",3.94 % PfCRTDd2 control
same,"[3H]CQ transport, non-expressing oocytes","non-expressing oocytes; 5 mM Ca2+, Experiment 4",3.67 % PfCRTDd2 control
same,"[3H]CQ transport, non-expressing oocytes","non-expressing oocytes; Control, Experiment 1, Supp Fig. 2b",3.53 % PfCRTDd2 control
same,"[3H]CQ transport, non-expressing oocytes","non-expressing oocytes; Control, Experiment 1, Supp Fig. 2f",3.93 % PfCRTDd2 control
same,"[3H]CQ transport, non-expressing oocytes","non-expressing oocytes; Control, Experiment 1, Supp Fig. 2d",3.52 % PfCRTDd2 control
same,"[3H]CQ transport, non-expressing oocytes","non-expressing oocytes; Control, Experiment 2, Supp Fig. 2b",3.62 % PfCRTDd2 control
same,"[3H]CQ transport, non-expressing oocytes","non-expressing oocytes; Control, Experiment 2, Supp Fig. 2f",3.26 % PfCRTDd2 control
same,"[3H]CQ transport, non-expressing oocytes","non-expressing oocytes; Control, Experiment 2, Supp Fig. 2d",3.16 % PfCRTDd2 control
same,"[3H]CQ transport, non-expressing oocytes","non-expressing oocytes; Control, Experiment 3, Supp Fig. 2b",3.28 % PfCRTDd2 control
same,"[3H]CQ transport, non-expressing oocytes","non-expressing oocytes; Control, Experiment 3, Supp Fig. 2f",3.29 % PfCRTDd2 control
same,"[3H]CQ transport, non-expressing oocytes","non-expressing oocytes; Control, Experiment 3, Supp Fig. 2d",3.75 % PfCRTDd2 control
same,"[3H]CQ transport, non-expressing oocytes","non-expressing oocytes; Control, Experiment 4, Supp Fig. 2b",3.81 % PfCRTDd2 control
same,"[3H]CQ transport, non-expressing oocytes","non-expressing oocytes; Control, Experiment 4, Supp Fig. 2f",4.38 % PfCRTDd2 control
same,"[3H]CQ transport, non-expressing oocytes","non-expressing oocytes; Control, Experiment 4, Supp Fig. 2d",3.21 % PfCRTDd2 control
"CC(C)(C)NC(=O)[C@@H]1C[C@@H]2CCCC[C@@H]2CN1C[C@@H](O)[C@H](Cc1ccccc1)NC(=O)[C@H](CC(N)=O)NC(=O)c1ccc2ccccc2n1 [Saquinavir, saquinavir, reference compound]",Cis-inhibition of [3H]CQ transport (in words),PfCRT^Dd2 [1],cis-inhibited
same,App Vmax for the trans-stimulatory effect of the peptide mimic on [3H]CQ transport,PfCRT^Dd2 [2],0.8 ±0.05 pmol/oocyte/h
same,App Vmax for the trans-stimulatory effect of the peptide mimic on [3H]CQ transport,PfCRT^Ecu1110,1.6 ±0.2 pmol/oocyte/h
same,"[3H]CQ transport, PfNT1 (% PfCRTDd2 control)",PfNT1; Experiment 1,2.62 % PfCRTDd2 control
same,"[3H]CQ transport, PfNT1 (% PfCRTDd2 control)",PfNT1; Experiment 2,2.47 % PfCRTDd2 control
same,"[3H]CQ transport, PfNT1 (% PfCRTDd2 control)",PfNT1; Experiment 3,2.54 % PfCRTDd2 control
same,"[3H]CQ transport, PfNT1 (% PfCRTDd2 control)",PfNT1; Experiment 4,2.32 % PfCRTDd2 control
same,App Vmax for the trans-stimulatory effect of the peptide mimic on [3H]CQ transport,"PfCRT^3D7; PfCRT3D7, mean ± SEM, n = 5, SEM",2.2 ±0.5 pmol/oocyte/h
same,Trans-stimulation of [3H]CQ transport via PfCRT (in words),PfCRT^3D7; PfCRT isoforms as stated in the sentence,trans-stimulated
same,"[3H]CQ transport, PfCRT3D7 (% PfCRT3D7 control)",PfCRT^3D7; Experiment 1,157.43 % PfCRT3D7 control
same,"[3H]CQ transport, PfCRT3D7 (% PfCRT3D7 control)",PfCRT^3D7; Experiment 2,162.15 % PfCRT3D7 control
same,"[3H]CQ transport, PfCRT3D7 (% PfCRT3D7 control)",PfCRT^3D7; Experiment 3,143.46 % PfCRT3D7 control
same,"[3H]CQ transport, PfCRT3D7 (% PfCRT3D7 control)",PfCRT^3D7; Experiment 4,158.34 % PfCRT3D7 control
